Source: patent publication US20190110473A1, “SYNERGISTIC WEED CONTROL FROM APPLICATIONS OF PYRIDINE CARBOXYLIC ACID HERBICIDES AND PHOTOSYSTEM II INHIBITORS” (Dow AgroSciences LLC, priority 2017, published 2019)

What was measured:
Test in all cases: Greenhouse herbicidal activity, visual weed control
Assay type in all cases: in vivo
Conditions in all cases: 20-22 d
[1] = system: Persian speedwell (Veronica persica; VERPE)
Protocol: (§1) Seeds of the desired test plant species were planted in Sun Gro MetroMix® 306 planting mixture, which typically has a pH of 6.0 to 6.8 and an organic matter content of about 30 percent, in plastic pots with a surface area of 103.2 square centimeters (cm^2). When required to ensure good germination and healthy plants, a fungicide treatment and/or other chemical or physical treatment was applied. The plants were grown for 7-36 days (d) in a greenhouse with an approximate 14 hour (h) photoperiod which was maintained at about 18° C. during the day and 17° C. during the night. Nutrients and water were added on a regular basis and supplemental lighting was provided with overhead metal halide 1000-Watt lamps as necessary. The plants were employed for testing when they reached the second or third true leaf stage.
(§2) An aliquot of formulated Compound 1 (100 grams acid equivalent per liter (g ae/L); emusifiable concentrate (EC)) was placed in a 25 mL glass vial and diluted in a volume of 1.25% (volume per volume (v/v)) aqueous methylated soybean seed oil to obtain a stock solution. The concentrated stock solutions were diluted with an aqueous mixture of 1.25% v/v of aqueous methylated soybean seed oil to provide the appropriate application rates. Compound requirements are based upon a 12 mL application volume at a rate of 187 liters per hectare (L/ha). Compositions of Compound 1 and the photosystem II inhibitor herbicides (propanil, amicarbazone, pyridafol, desmedipham, terbacil, or bromacil) were prepared by adding aliquot or weighted amount of the photosystem II inhibitor into the diluted solutions of Compound 1. The compositions of Compound 1 and the photosystem II inhibitor herbicides were applied to the plant material with an overhead Mandel track sprayer equipped with 8002E nozzles calibrated to deliver 187 L/ha over an application area of 0.503 square meters (m^2) at a spray height of 18 inches (43 centimeters (cm)) above average plant canopy. Control plants were sprayed in the same manner with the solvent blank.
(§3) The efficacy of each of these herbicidal compositions was then evaluated against rapeseed (Brassica napus; BRSNN), shepherd's purse (Capsella bursa-pastoris; CAPBP), common chickweed (Stellaria media; STEME), scentless mayweed (Matricaria inodora; MATIN), corn chamomile (Anthemis arvensis; ANTAR), wild chamomile (Matricaria chamomilla; MATCH), Persian speedwell (Veronica persica; VERPE), ivyleaf speedwell (Veronica hederifolia; VERHE), corn poppy (Papaver rhoeas; PAPRH), kochia (Kochia scoparia; KCHSC), and Canada thistle (Cirsium arvense; CIRAR). The treated plants and control plants were placed in a greenhouse as described above and watered by subirrigation to prevent washoff of the test compounds. After 20-22 d, the condition of the test plants as compared with that of the control plants was determined visually and scored on a scale of 0 to 100 percent where 0 corresponds to no injury and 100 corresponds to complete kill. […]
(§4) The values reported are means.

[2] = system: common chickweed (Stellaria media; STEME)
Protocol: as §1, §2, §3, §4

[3] = system: corn chamomile (Anthemis arvensis; ANTAR)
Protocol: as §1, §2, §3, §4

[4] = system: rapeseed (Brassica napus; BRSNN)
Protocol: as §1, §2, §3, §4

[5] = system: scentless mayweed (Matricaria inodora; MATIN)
Protocol: as §1, §2, §3, §4

[6] = system: corn poppy (Papaver rhoeas; PAPRH)
Protocol: as §1, §2, §3, §4

[7] = system: ivyleaf speedwell (Veronica hederifolia; VERHE)
Protocol: as §1, §2, §3, §4

[8] = system: wild chamomile (Matricaria chamomilla; MATCH)
Protocol: as §1, §2, §3, §4

[9] = system: shepherd's purse (Capsella bursa-pastoris; CAPBP)
Protocol: as §1, §2, §3, §4

[10] = system: Canada thistle (Cirsium arvense; CIRAR)
Protocol: as §1, §2, §3, §4

[11] = system: kochia (Kochia scoparia; KCHSC)
Protocol: as §1, §2, §3, §4

CC(C)c1nn(C(=O)NC(C)(C)C)c(=O)n1N [Amicarbazone, amicarbazone]
Obs (% visual control) ([1]; Amicarbazone 300 g/ha alone): 20% | Obs (% visual control) ([2]; Amicarbazone 300 g/ha alone): 20% | Obs (% visual control) ([3]; Amicarbazone 300 g/ha alone): 30% | Obs (% visual control) ([4]; Amicarbazone 300 g/ha alone): 60% | Obs (% visual control) ([5]; Amicarbazone 300 g/ha alone): 30% | Obs (% visual control) ([6]; PAPRH, Amicarbazone 300 g/ha alone): 30% | Obs (% visual control) ([7]; Amicarbazone 300 g/ha alone): 50% | Obs (% visual control) ([8]; Amicarbazone 300 g/ha alone): 95% | Obs (% visual control) ([9]; Amicarbazone 300 g/ha alone): 50% | Obs (% visual control) ([10]; Amicarbazone 300 g/ha alone): 50% | Obs (% visual control) ([11]; Amicarbazone 300 g/ha alone): 50%

CCC(C)n1c(=O)[nH]c(C)c(Br)c1=O (stereo not shown) [Bromacil, bromacil]
Obs (% visual control) ([1]; Bromacil 900 g/ha alone): 10% | Obs (% visual control) ([2]; Bromacil 900 g/ha alone): 100% | Obs (% visual control) ([3]; Bromacil 900 g/ha alone): 30% | Obs (% visual control) ([4]; Bromacil 900 g/ha alone): 65% | Obs (% visual control) ([5]; Bromacil 900 g/ha alone): 100% | Obs (% visual control) ([6]; R-PAPRH, Bromacil 900 g/ha alone): 100% | Obs (% visual control) ([7]; Bromacil 900 g/ha alone): 30% | Obs (% visual control) ([8]; Bromacil 900 g/ha alone): 100% | Obs (% visual control) ([9]; Bromacil 900 g/ha alone): 65% | Obs (% visual control) ([10]; Bromacil 900 g/ha alone): 10% | Obs (% visual control) ([11]; Bromacil 900 g/ha alone): 97%

Nc1c(F)c(-c2ccc3cc[nH]c3c2F)nc(C(=O)O)c1Cl [Compound 1]
Obs (% visual control) ([1]; Compound 1 5 g/ha alone): 70% | Obs (% visual control) ([1]; Compound 1 10 g/ha alone): 85% | Obs (% visual control) ([2]; Compound 1 5 g/ha alone): 65% | Obs (% visual control) ([2]; Compound 1 10 g/ha alone): 70% | Obs (% visual control) ([3]; Compound 1 5 g/ha alone): 10% | Obs (% visual control) ([3]; Compound 1 10 g/ha alone): 40% | Obs (% visual control) ([4]; Compound 1 5 g/ha alone): 40% | Obs (% visual control) ([4]; Compound 1 10 g/ha alone): 50% | Obs (% visual control) ([5]; Compound 1 5 g/ha alone): 10% | Obs (% visual control) ([5]; Compound 1 10 g/ha alone): 60% | Obs (% visual control) ([6]; PAPRH (R-PAPRH in Tables 1 and 6), Compound 1 5 g/ha alone): 75% | Obs (% visual control) ([6]; PAPRH (R-PAPRH in Tables 1 and 6), Compound 1 10 g/ha alone): 80% | Obs (% visual control) ([7]; Compound 1 5 g/ha alone): 75% | Obs (% visual control) ([7]; Compound 1 10 g/ha alone): 75% | Obs (% visual control) ([8]; Compound 1 5 g/ha alone): 10% | Obs (% visual control) ([8]; Compound 1 10 g/ha alone): 10% | Obs (% visual control) ([9]; Compound 1 5 g/ha alone): 65% | Obs (% visual control) ([9]; Compound 1 10 g/ha alone): 70% | Obs (% visual control) ([10]; Compound 1 5 g/ha alone): 10% | Obs (% visual control) ([10]; Compound 1 10 g/ha alone): 30% | Obs (% visual control) ([11]; Compound 1 5 g/ha alone): 50% | Obs (% visual control) ([11]; Compound 1 10 g/ha alone): 55%

CCOC(=O)Nc1cccc(OC(=O)Nc2ccccc2)c1 [Desmedipham, desmedipham]
Obs (% visual control) ([1]; Desmedipham 163 g/ha alone): 10% | Obs (% visual control) ([2]; Desmedipham 163 g/ha alone): 0% | Obs (% visual control) ([3]; Desmedipham 163 g/ha alone): 10% | Obs (% visual control) ([4]; Desmedipham 163 g/ha alone): 15% | Obs (% visual control) ([5]; Desmedipham 163 g/ha alone): 10% | Obs (% visual control) ([6]; PAPRH, Desmedipham 163 g/ha alone): 0% | Obs (% visual control) ([7]; Desmedipham 163 g/ha alone): 10% | Obs (% visual control) ([8]; Desmedipham 163 g/ha alone): 10% | Obs (% visual control) ([9]; Desmedipham 163 g/ha alone): 0% | Obs (% visual control) ([10]; Desmedipham 163 g/ha alone): 0% | Obs (% visual control) ([11]; Desmedipham 163 g/ha alone): 0%

CCC(=O)Nc1ccc(Cl)c(Cl)c1 [Propanil, propanil]
Obs (% visual control) ([1]; Propanil 840 g/ha alone): 10% | Obs (% visual control) ([2]; Propanil 840 g/ha alone): 0% | Obs (% visual control) ([3]; Propanil 840 g/ha alone): 50% | Obs (% visual control) ([4]; Propanil 840 g/ha alone): 10% | Obs (% visual control) ([5]; Propanil 840 g/ha alone): 0% | Obs (% visual control) ([6]; R-PAPRH, Propanil 840 g/ha alone): 20% | Obs (% visual control) ([7]; Propanil 840 g/ha alone): 10% | Obs (% visual control) ([8]; Propanil 840 g/ha alone): 10% | Obs (% visual control) ([9]; Propanil 840 g/ha alone): 50% | Obs (% visual control) ([10]; Propanil 840 g/ha alone): 10% | Obs (% visual control) ([11]; Propanil 840 g/ha alone): 10%

O=c1cc(Cl)[nH]nc1-c1ccccc1 [Pyridafol, pyridafol]
Obs (% visual control) ([1]; Pyridafol 195 g/ha alone): 0% | Obs (% visual control) ([2]; Pyridafol 195 g/ha alone): 0% | Obs (% visual control) ([3]; Pyridafol 195 g/ha alone): 0% | Obs (% visual control) ([4]; Pyridafol 195 g/ha alone): 5% | Obs (% visual control) ([5]; Pyridafol 195 g/ha alone): 10% | Obs (% visual control) ([6]; PAPRH, Pyridafol 195 g/ha alone): 0% | Obs (% visual control) ([7]; Pyridafol 195 g/ha alone): 0% | Obs (% visual control) ([8]; Pyridafol 195 g/ha alone): 0% | Obs (% visual control) ([9]; Pyridafol 195 g/ha alone): 0% | Obs (% visual control) ([10]; Pyridafol 195 g/ha alone): 0% | Obs (% visual control) ([11]; Pyridafol 195 g/ha alone): 0%

Cc1[nH]c(=O)n(C(C)(C)C)c(=O)c1Cl [Terbacil, terbacil]
Obs (% visual control) ([1]; Terbacil 113 g/ha alone): 30% | Obs (% visual control) ([2]; Terbacil 113 g/ha alone): 10% | Obs (% visual control) ([3]; Terbacil 113 g/ha alone): 0% | Obs (% visual control) ([4]; Terbacil 113 g/ha alone): 10% | Obs (% visual control) ([5]; Terbacil 113 g/ha alone): 10% | Obs (% visual control) ([6]; PAPRH, Terbacil 113 g/ha alone): 10% | Obs (% visual control) ([7]; Terbacil 113 g/ha alone): 60% | Obs (% visual control) ([8]; Terbacil 113 g/ha alone): 60% | Obs (% visual control) ([9]; Terbacil 113 g/ha alone): 30% | Obs (% visual control) ([10]; Terbacil 113 g/ha alone): 30% | Obs (% visual control) ([11]; Terbacil 113 g/ha alone): 0%
